These results are taken from patent publication US11442059B2, “Method for treating a chronic itch condition by administering small molecule MrgprX4 antagonists” (The Johns Hopkins University, priority 2017, dated 2022).

For one data set, the target named is T1, mouse Mrgpra1 (Mus musculus, UniProt Q91WW5).
T1 construct: expressed in transfected cells; host or cells: HEK293
T1 sequence (Q91WW5 1-304): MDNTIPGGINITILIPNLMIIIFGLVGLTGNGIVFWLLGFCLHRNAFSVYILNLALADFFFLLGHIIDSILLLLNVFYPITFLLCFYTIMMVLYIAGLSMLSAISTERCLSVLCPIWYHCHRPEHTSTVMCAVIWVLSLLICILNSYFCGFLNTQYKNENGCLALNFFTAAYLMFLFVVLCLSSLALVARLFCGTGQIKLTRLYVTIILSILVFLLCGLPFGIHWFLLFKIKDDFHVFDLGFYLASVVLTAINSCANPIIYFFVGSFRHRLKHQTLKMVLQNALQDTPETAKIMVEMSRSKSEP
Kind of data set: Ca2+ imaging / EC50 determination in HEK293 cells expressing Mrgpra1. It is filed as cell-based. Particulars: Mrgprs individually expressed in HEK293 cells. On the procedure:
(§1) Lamotrigine (LTG), allopurinol, carbamazepine and oxcarbazepine (all from Sigma) were prepared fresh on the day of the experiment. These drugs were dissolved into dimethyl sulfoxide (DMSO) first, and then were diluted at least 10000× into calcium imaging buffer before use. The final concentrations of drugs for each experiment were indicated in the corresponding figure legend.
(§2) In initial experiments, HEK293 cells were plated on 100 μg/ml poly-D-lysine coated glass cover slips, and transiently transfected with vector containing Mrgprs gene, after 24-48 hours of culture, cells were loaded with Fura 2-acetomethoxy ester calcium indicator (0.5 μM, Molecular Probes) along with pluronic F-127 dispersing agent (0.1%, Molecular Probes) for 30 minutes in the dark at 37° C., then washed with calcium imaging buffer (CIB; NaCl 125 mM, KCl 3 mM, CaCl2 2.5 mM, MgCl2 0.6 mM, HEPES 10 mM, glucose 20 mM, NaHCO3 1.2 mM, sucrose 20 mM, brought to pH 7.4 with NaOH). Drugs were added to Fura 2-loaded cells and intracellular free calcium was measured using 340 nm and 380 nm excitation wavelengths with emission measured at 520 nm with a microscope based imaging system (Nikon Eclipse TE200). Changes in emission fluorescence ratios at 340/380 nm excitation were continuously monitored at 1 second intervals. Later, experiments were performed using Mrgpra1-GFP, Mrgprc11-GFP and MRGPRX4-GFP stable cell lines to confirm the findings obtained from the transiently expressing cells.
(§3) Mrgpra1 or both wild-type and mutant MRGPRX4 stably expressed HEK cells were plated overnight in 100 μl culture media on 96-well plates. […] After 1 hour of incubation at 37° C., cells were allowed to recover for 10 minutes in the dark at room temperature prior to performing intracellular calcium mobilization assay in a FLEXSTATION® multi-mode plate reader (Molecular Devices). […] Responses were determined by subtracting the minimum signal (at the basal level before adding the drug) from the maximum signal (obtained after stimulating with the drug). […]

The subject of another data set is 129S1/SvImJ mice. Kind of data set: SJS/TEN mouse model (daily oral gavage of causative drug). It is filed as in vivo. Particulars: mouse, in vivo. As for the experimental part:
Eight-to-ten week old male mice were orally gavaged with either causative drugs (LTG, allopurinol, oxcarbazepine) suspended in saline or saline once daily. The dosage was based on milligrams per kilogram of animal's body weight as indicated (for example, LTG 50 mg kg^−1 body weight). Skin, eyes, and mucosa, survival, body weight, physical and gross appearances (particularly on the eyes, mucosa and skins) were monitored every day.
The animals were deeply anesthetized with pentobarbital and transcardially perfused with 20 ml 0.1 M cold PBS (pH 7.4) followed with 25 ml of cold 4% paraformaldehyde (PFA). Paw skin, eyelid, spleen, lymph nodes were dissected out. postfixed in 4% PFA for more than two hours, and cryoprotected in a 20% followed by 30% sucrose solution for 24 hours each at 4° C. Tissue samples were embedded in the optimal cutting temperature (OCT) and frozen before being serially cut into 20 μm sections and placed onto slides. Hematoxylin and eosin (H&E) staining was performed using standard procedures according to the manufacturer's instruction VITROVIEW™ H&E Stain Kit). To quantify amount of apoptotic cells, terminal deoxynucleotidyl transferase dUTP nick end labeling (TUNEL) assay, a method for detecting DNA fragmentation that results from apoptotic cells by labeling the terminal end of nucleic acids, was performed by following the protocol of Apo-BrdU DNA Fragmentation Assay Kit (Biovision). To estimate the total cell number in tissue, all nuclei were stained with propidium iodide. Digital photographs were captured under confocal fluorescent microscopy at x200 magnification (Zeiss LSM 700). The number of TUNEL-positive nuclei were counted and reported as a percentage over the number of total nuclei observed in the skin's epidermis layer.

The target in data set [1] is T2, MRGPRX4 (Homo sapiens, UniProt Q96LA9). Kind of data set: Ca2+ imaging / EC50 determination in HEK293 cells expressing MRGPRX4. The conditions noted are these: Mrgprs individually expressed in HEK293 cells. Details: expressed in transfected cells. It is filed as cell-based. On the procedure: as §1, §2, §3
T2 sequence (Q96LA9 whole entry): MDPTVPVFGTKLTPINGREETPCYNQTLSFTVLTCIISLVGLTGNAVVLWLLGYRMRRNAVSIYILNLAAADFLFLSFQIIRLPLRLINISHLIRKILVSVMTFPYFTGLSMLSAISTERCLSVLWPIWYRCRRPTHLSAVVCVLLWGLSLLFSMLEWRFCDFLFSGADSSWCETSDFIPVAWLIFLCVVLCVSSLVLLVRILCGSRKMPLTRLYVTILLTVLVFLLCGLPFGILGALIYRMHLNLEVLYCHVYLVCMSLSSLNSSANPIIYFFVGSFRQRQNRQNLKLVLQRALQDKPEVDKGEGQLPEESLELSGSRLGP
Data set [2] relates to mice.
Data set [3] deals with T3, MrgprA1 (Mus musculus, UniProt Q91WW5).
T3 construct: expressed in transfected cells; whole cells or crude membrane fraction
T3 sequence (Q91WW5 1-304): T1 sequence (Q91WW5 1-304)
Kind of data set: FLIPR calcium assay (Flexstation3), HEK cells stably expressing MrgprA1. It is filed as cell-based. Particulars: MrgprA1 HEK cells, FIG. 17B. As for the experimental part: EC50s were calculated using HEK cells stably expressing either MrgprA1 or MrgprX4. Cells were loaded with FLIPR calcium imaging dye, and a Flexstation3 machine (Molecular Devices) was used for reading changes in fluorescence. Wells were run in triplicate, and all values from each plate were normalized to the highest responding well. […] The x-axis depicts a modified logarithmic scale. […] FIG. 18B is a graph depicting the EC50 for MrgprX4 for bilirubin is approximately 3 μM.

In data set [4] the target is T3, MrgprA1. Kind of data set: Fura 2-AM calcium imaging, EC50 and IC50 determinations, MRGPRA1 HEK293 cells. It is filed as cell-based. Particulars: for activation of MRGPRA1-expressing cells (calcium): concentration-Ca2+ response, FIG. 24D. On the procedure: (§4) Cells were imaged in calcium imaging buffer (CIB; 10 mM HEPES, 1.2 mM NaHCO3, 130 mM NaCl, 3 mM KCl, 2.5 mM CaCl2, 0.6 mM MgCl2, 20 mM glucose, and 20 mM sucrose at pH 7.4 and 290-300 mOsm). To monitor changes in intracellular [Ca^2+] ([Ca^2+]i), cells were loaded with either Fura 2-AM (HEK293 cells) or Fluo 4-AM (DRG neurons and mast cells) for 30 min in the dark at 37° C. in CIB just prior to imaging. With Fura 2-AM, emission at 510 nm was monitored from excitation at both 340 nm and 380 nm. With Fluo 4-AM, emission at 520 nm was monitored from excitation at 488 nm. Cells were identified as responding if the intracellular [Ca^2+] rose by either 50% compared to baseline or 50% compared to the [Ca^2+]i change assayed during addition of 50 mM KCl (neurons only). Damaged, detached, high-baseline, and motion-activated cells were excluded from analysis.
(§5) In initial screens, HEK293 cells stably expressing the murine G-protein alpha-subunit Gα15, a unique Gα protein that non-selectively couples a large variety of GPCRs to phospholipase C^30, were plated on poly-D-lysine-coated coverslips and transiently transfected with constructs encoding the MRGRPR of interest. 12-24 h later, cells were loaded with the Fura 2-AM. Unless otherwise specified, compounds were perfused into the imaging chamber for approximately thirty seconds after a baseline period was established. Response was then monitored at 5 s intervals for an additional 60 s.
HEK293 cells stably expressing either MRGPRA1, MRGPRX4, and MRGRPC11 were seeded in poly-D-lysine-coated 96-well plates at 10,000 cells/well. Cells were loaded with Fura 2-AM, washed twice, and maintained in CIB. Haem metabolites were freshly dissolved in DMSO in dim light and then diluted into a buffer comprised of 20 mM Tris and 150 mM NaCl at pH 8.8. Potential changes in pH were evaluated prior to each experiment. EC50 values were determined from dose-responses performed in triplicate, repeated 2-4 times. To determine potential antagonism by QWF against bilirubin, cells were treated with varying doses of QWF for 1 min in CIB prior to application of agonist.

The target in data set [5] is T2, MRGPRX4. Kind of data set: Fura 2-AM calcium imaging, EC50 determinations, MRGPRX4 HEK293 cells. It is filed as cell-based. Details: expressed in transfected cells; whole cells or crude membrane fraction. Particulars: for activation of MRGPRX4-expressing cells (calcium): concentration-Ca2+ response, FIG. 24I. On the procedure: as §4, §5
HEK293 cells stably expressing either MRGPRA1, MRGPRX4, and MRGRPC11 were seeded in poly-D-lysine-coated 96-well plates at 10,000 cells/well. Cells were loaded with Fura 2-AM, washed twice, and maintained in CIB. Haem metabolites were freshly dissolved in DMSO in dim light and then diluted into a buffer comprised of 20 mM Tris and 150 mM NaCl at pH 8.8. Potential changes in pH were evaluated prior to each experiment. EC50 values were determined from dose-responses performed in triplicate, repeated 2-4 times. […]

In data set [6] the target is T3, MrgprA1. The data set is described as follows: Microscale thermophoresis binding assay, MRGPRA1. Particulars: FIG. 24E. On the procedure:
(§6) Binding isotherms for MRGPRA1, MRGPRX4, and MRGRPC11 towards various ligands were determined by microscale thermophoresis with the NanoTemper monolith NT.115 instrument^27. Ligands were pre-incubated with 10 μM of the GFP-tagged receptor of interest for 5 minutes at room temperature in binding buffer (20 mM Tris and 150 mM NaCl at pH 8.8). Receptors were crudely purified as a membrane fraction from cells stably expressing the receptor^45. Haem metabolites were freshly dissolved in 0.1 M NaOH in dim light and then diluted into assay buffer. Lyophilized BAMS-22 was dissolved in binding buffer. The pH of each ligand was evaluated prior to incubation with a receptor. Samples were loaded into NT.115 Hydrophobic-Treated Capillaries from NanoTemper. Microscale thermophoretic experiments were executed using 20% LED power and 15% MST power. KDs were calculated using the law of mass action with data from three independent experiments. Binding between bilirubin and receptors was evaluated purely thermophoretically, whereas binding between BAMS-22 and MRGPRC11 was evaluated by T-Jump. Samples with dramatic deviations in initial fluorescence were excluded.

Data set [7] deals with mice. Kind of data set: Acute itch behaviour after injection (scratching bouts). It is filed as in vivo, mouse.
In data set [8] the target is T2, MRGPRX4. Kind of data set: Microscale thermophoresis binding assay, MRGPRX4. Also noted: expressed in transfected cells; whole cells or crude membrane fraction. Particulars: FIG. 24J. On the procedure:
as §6

The target in data set [9] is human MRGPRX3 (Mas-related G-protein coupled receptor member X3) (human) (UniProt Q96LB0). The data set is described as follows: cell-based or functional assay.
Sequence of human MRGPRX3 (Mas-related G-protein coupled receptor member X3) (human) (Q96LB0 whole entry): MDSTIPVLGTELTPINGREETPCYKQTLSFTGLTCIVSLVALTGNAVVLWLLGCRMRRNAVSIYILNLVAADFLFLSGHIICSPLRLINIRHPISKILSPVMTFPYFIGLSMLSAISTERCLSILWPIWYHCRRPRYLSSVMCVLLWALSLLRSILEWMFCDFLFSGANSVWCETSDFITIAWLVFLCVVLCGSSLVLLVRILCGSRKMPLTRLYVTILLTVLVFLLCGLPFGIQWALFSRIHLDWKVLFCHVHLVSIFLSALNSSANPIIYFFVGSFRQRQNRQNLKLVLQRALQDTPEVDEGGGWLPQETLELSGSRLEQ
[10] abbreviates: 10 μM pre-incubated 30 minutes, 50 μM bilirubin.

Non-standard residues stand in square brackets, D forms with d. Residues, ends and D or L forms follow the SMILES beside them. *: point of attachment. Boc = CC(C)(C)OC(=O)*; OBn = c1ccc(CO*)cc1; For = O=C*

Take `NC(=O)N1c2ccccc2CC(=O)c2ccccc21` [oxcarbazepine]: the “activation of mouse Mrgpra1 (Ca2+ imaging)” value on mouse Mrgpra1 is given as “specifically activated”. For the same compound, in the data set on 129S1/SvImJ mice, the eye manifestation result is reported as “can also induce eye manifestation”. Further, at MRGPRX4 [1], the “activation of human MRGPRX4 (Ca2+ imaging)” value was “specifically activated”.
For `S=C=Nc1cccc2ccccc12` [ANIT, α-naphthyl isothiocyanate], the “reduction in scratching bouts, Cluster KO versus WT littermates” value in the data set on mice [2] (25 mg/kg ANIT per os daily) is listed as about 46%.
Consider `COc1ccc2c(c1)CC[C@@H]1[C@@H]2CC[C@]2(C)[C@@H](NCCCCCCN3C(=O)C=CC3=O)CC[C@@H]12` [U73122], for which the “effect on bilirubin calcium influx” value on MrgprA1 [3] is listed as “blocked the calcium influx”. Besides, the “effect on bilirubin-induced calcium responses, MRGPRA1” value at MrgprA1 [4] (setting [10]) was “abolished”. Also, the “effect on bilirubin-induced calcium responses, MRGPRX4” value at MRGPRX4 [5] (setting [10]) is listed as “inhibited”.
Take `C=CC1=C(C)c2cc3[n-]c(cc4nc(cc5[n-]c(cc1n2)c(C)c5C=C)C(C)=C4CCC(=O)O)c(CCC(=O)O)c3C.[Cl-].[Fe+3]` [haemin]: at MrgprA1 [4], the “activation of MRGPRA1-expressing cells (calcium)” value was “failed to activate”. In addition, the “binding to MRGPRA1” value on MrgprA1 [6] is “did not bind”. Besides, the “scratching / itch elicited by injection” value in the data set on mice [7] (WT mice) was “did not induce scratching”. Further, the “activation of MRGPRX4-expressing cells (calcium)” value on MRGPRX4 [5] was “no effect”. Further, the “binding to MRGPRX4” value on MRGPRX4 [8] is recorded as “did not bind”.
Take “synthetic human Beta-defensin 3 (hBD3) (from UniProt P81534 23-67) (peptide)”: in [9], the percentage of primary human keratinocytes that responded to hBD3 (Ca^2+), after siRNA knock-down of MRGPRX3 is under 20% and the percentage of primary human keratinocytes that responded to hBD3 (Ca^2+), before MRGPRX3 knock-down was over 80%.
For the compound `CC(C)(C)OC(=O)N[C@@H](CCC(N)=O)C(=O)N[C@H](Cc1cn(C=O)c2ccccc12)C(=O)N[C@@H](Cc1ccccc1)C(=O)OCc1ccccc1` [QWF, BOC-GLN-D-(FORMYL)TRP-PHE-BENZYLESTER] (Boc-Gln-[dW](For)-Phe-OBn), the “effect on pruritus associated with bilirubin” value with mice [7] (0.25 mg/kg co-injected with bilirubin) is given as “significantly alleviated pruritus”. Moreover, the “effect on chloroquine-MRGPRA3 associated itch” value in the data set with mice [7] (co-injected with chloroquine) is recorded as “did not attenuate”. Besides, in the data set with mice [2] (ANIT-dosed WT animals, 1 mg/kg i.p. thirty minutes prior to behavioral analysis), the “scratching versus vehicle-treated animals” value was “scratched significantly less”. For the same compound, in the data set with mice [2] (mouse, in vivo, ip, 1 mg/kg), the “plasma levels of total bilirubin, AST, ALT, or ALP” value is on record as “did not change”.
As for `C=CC1=C(C)/C(=C/c2[nH]c(Cc3[nH]c(/C=C4\NC(=O)C(C)=C4C=C)c(C)c3CCC(=O)NCCS(=O)(=O)O)c(CCC(=O)NCCS(=O)(=O)O)c2C)NC1=O` [Conjugated bilirubin, bilirubin ditaurate], the “activation of MRGPRA1-expressing cells (calcium)” value on MrgprA1 [4] is reported as “activated”. Also, the “binding to MRGPRA1” value on MrgprA1 [6] is listed as “lower affinities compared to bilirubin”. Moreover, the “activation of MRGPRX4-expressing cells (calcium)” value at MRGPRX4 [5] was “activated”. Moreover, the “binding to MRGPRX4” value on MRGPRX4 [8] was “lower affinities compared to bilirubin”.
